Experimental data as given in ChEMBL document CHEMBL5131569, “SAGE-718: A First-in-Class N-Methyl-d-Aspartate Receptor Positive Allosteric Modulator for the Potential Treatment of Cognitive Impairment” (J Med Chem, 2022).

How the values were obtained:
[1] = tested on: Mus musculus; assay: Reversal of DOI-induced hyperlocomotion in CD-1 mouse assessed as reduction in distance travel at 3 mg/kg, ip administered 90 mins prior to DOI induction and measured upto 30 mins post DOI treatment (reference value: 7.8 +/- 0.8 meter); type: functional; details: time <= 120 min, 2 h
[2] = Metabolic stability in mouse liver microsomes assessed as intrinsic clearance at 10 uM preincubated for 5 mins followed by NADPH addition and measured upto 65 mins by LC-MS/MS analysis; type: ADME, Microsome; details: time < 70 min, read-out: CLH
[3] = tested on: Mus musculus; assay: Reversal of DOI-induced hyperlocomotion in CD-1 mouse assessed as reduction in rearing at 7.5 mg/kg, ip administered 90 mins prior to DOI induction and measured upto 30 mins post DOI treatment (reference value: 59.8 +/- 8.6 Counts); type: functional; details: time <= 120 min, 2 h
[4] = target: T1, Potassium/sodium hyperpolarization-activated cyclic nucleotide-gated channel 2 (Homo sapiens, UniProt Q9UL51); assay: Inhibition of HCN2 (unknown origin) by patch clamp method
T1 sequence (Q9UL51 whole entry): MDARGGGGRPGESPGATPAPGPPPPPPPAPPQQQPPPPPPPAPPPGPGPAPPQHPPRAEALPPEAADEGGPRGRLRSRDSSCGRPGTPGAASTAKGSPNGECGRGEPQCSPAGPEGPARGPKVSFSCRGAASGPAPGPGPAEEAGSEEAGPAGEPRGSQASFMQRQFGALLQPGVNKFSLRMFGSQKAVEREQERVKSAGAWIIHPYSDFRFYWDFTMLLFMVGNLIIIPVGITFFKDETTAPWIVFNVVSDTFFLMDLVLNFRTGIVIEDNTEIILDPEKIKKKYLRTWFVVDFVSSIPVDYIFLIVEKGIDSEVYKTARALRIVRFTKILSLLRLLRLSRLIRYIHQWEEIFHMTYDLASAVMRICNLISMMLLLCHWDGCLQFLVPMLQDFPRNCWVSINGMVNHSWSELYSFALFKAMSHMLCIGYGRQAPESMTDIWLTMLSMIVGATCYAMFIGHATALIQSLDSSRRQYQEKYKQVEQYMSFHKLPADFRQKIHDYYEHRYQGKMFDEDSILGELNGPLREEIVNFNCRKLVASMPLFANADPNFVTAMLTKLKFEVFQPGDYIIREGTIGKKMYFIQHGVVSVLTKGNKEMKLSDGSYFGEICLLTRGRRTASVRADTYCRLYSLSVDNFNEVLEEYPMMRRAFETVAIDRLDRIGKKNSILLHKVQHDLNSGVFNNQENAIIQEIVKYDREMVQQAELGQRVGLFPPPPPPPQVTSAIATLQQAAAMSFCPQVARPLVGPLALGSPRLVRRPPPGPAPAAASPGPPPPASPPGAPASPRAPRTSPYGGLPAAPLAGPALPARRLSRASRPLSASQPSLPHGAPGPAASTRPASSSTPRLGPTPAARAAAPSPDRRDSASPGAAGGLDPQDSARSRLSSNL

[5] = Clearance in Sprague-Dawley rat by LC-MS/MS analysis; type: ADME; details: in vivo
[6] = target: Ionotropic glutamate receptor NMDA 1/2D (Homo sapiens, UniProt O15399+Q05586); assay: Positive allosteric modulation of recombinant human GluN1/GluN2D receptor stably expressed in HEK293 cells assessed as increase in glycine/L-glutamate-induced channel current at -70 mV holding potential by whole cell patch clamp method
[7] = tested on: Mus musculus; assay: Reversal of DOI-induced hyperlocomotion in CD-1 mouse assessed as reduction in distance travel at 10 mg/kg, ip administered 90 mins prior to DOI induction and measured upto 30 mins post DOI treatment (reference value: 7.8 +/- 0.8 meter); type: functional; details: time <= 120 min, 2 h
[8] = Drug concentration in CD-1 mouse plasma at 5 mg/kg, ip administered for 90 mins; type: ADME, organism-based
[9] = Oral bioavailability in Sprague-Dawley rat by LC-MS/MS analysis; type: ADME, organism-based; details: in vivo
[10] = Drug concentration in CD-1 mouse brain at 10 mg/kg, ip administered for 90 mins; type: ADME, organism-based; details: read-out: Ct
[11] = target: Sodium channel protein type 5 subunit alpha (Homo sapiens, UniProt Q14524); assay: Inhibition of NaV1.5 (unknown origin)
[12] = Metabolic stability in rat hepatocytes assessed as clearance at 10 uM measured upto 120 mins by LC-MS/MS analysis; type: ADME, cell-based, Hepatocyte; details: 2 h
[13] = target: Potassium voltage-gated channel subfamily A member 5 (Homo sapiens, UniProt P22460); assay: Inhibition of Kv1.5 (unknown origin) by patch clamp method
[14] = in vivo; details: CD-1, mouse, brain and plasma
Description: Ratio of AUC(0 to 72 hrs) in CD-1 mouse brain to plasma by LC-MS/MS analysis

[15] = Metabolic stability in human liver microsomes assessed as intrinsic clearance at 10 uM preincubated for 5 mins followed by NADPH addition and measured upto 65 mins by LC-MS/MS analysis; type: ADME, Microsome; details: time < 70 min, read-out: CLH
[16] = in vivo; details: Sprague-Dawley, rat, brain and plasma
Description: Ratio of AUC(0 to 72 hrs) in Sprague-Dawley rat brain to plasma by LC-MS/MS analysis

[17] = Clearance in CD-1 mouse by LC-MS/MS analysis; type: ADME; details: in vivo
[18] = Plasma protein binding in mouse after 15 mins by equilibrium dialysis method; type: ADME, cell-free; details: read-out: PPB (converted)
[19] = target: Glutamate NMDA receptor; GRIN1/GRIN2A (Homo sapiens, UniProt Q05586+Q12879); assay: Positive allosteric modulation of recombinant human GluN1/GluN2A receptor stably expressed in HEK293 cells assessed as increase in glycine/L-glutamate-induced channel current at -70 mV holding potential by whole cell patch clamp method; type: cell-based
[20] = Inhibition of Kv4.3/KChIP2.2 (unknown origin) by patch clamp method; parameters: species or system Homo sapiens
[21] = Metabolic stability in dog hepatocytes assessed as clearance at 10 uM measured upto 120 mins by LC-MS/MS analysis; type: ADME, cell-based, Canis lupus familiaris, Hepatocyte; details: 2 h
[22] = target: Voltage-gated inwardly rectifying potassium channel KCNH2 (Homo sapiens, UniProt Q12809); assay: Inhibition of human ERG; type: toxicity
[23] = Metabolic stability in dog liver microsomes assessed as intrinsic clearance at 10 uM preincubated for 5 mins followed by NADPH addition and measured upto 65 mins by LC-MS/MS analysis; type: ADME, Canis lupus familiaris, Microsome; details: time < 70 min, read-out: CLH
[24] = Drug concentration in CD-1 mouse brain at 3 mg/kg, ip administered for 90 mins; type: ADME, organism-based; details: read-out: Ct
[25] = Plasma protein binding in human after 15 mins by equilibrium dialysis method; type: ADME, cell-free; details: read-out: PPB (converted)
[26] = tested on: Mus musculus; assay: Reversal of DOI-induced hyperlocomotion in CD-1 mouse assessed as reduction in rearing at 10 mg/kg, ip administered 90 mins prior to DOI induction and measured upto 30 mins post DOI treatment (reference value: 59.8 +/- 8.6 Counts); type: functional; details: time <= 120 min, 2 h
[27] = Plasma protein binding in rat after 15 mins by equilibrium dialysis method; type: ADME, cell-free; details: read-out: PPB (converted)
[28] = target: Voltage-dependent L-type calcium channel subunit alpha-1C (Homo sapiens, UniProt Q13936); assay: Inhibition of CaV1.2 (unknown origin) by patch clamp method
[29] = tested on: Mus musculus; assay: Reversal of DOI-induced hyperlocomotion in CD-1 mouse assessed as reduction in distance travel at 5 mg/kg, ip administered 90 mins prior to DOI induction and measured upto 30 mins post DOI treatment (reference value: 7.8 +/- 0.8 meter); type: functional; details: time <= 120 min, 2 h
[30] = target: Cytochrome P450 3A4 (Homo sapiens, UniProt P08684); assay: Inhibition of CYP3A4 (unknown origin); type: ADME
Cytochrome P450 3A4, sequence (P08684 whole entry): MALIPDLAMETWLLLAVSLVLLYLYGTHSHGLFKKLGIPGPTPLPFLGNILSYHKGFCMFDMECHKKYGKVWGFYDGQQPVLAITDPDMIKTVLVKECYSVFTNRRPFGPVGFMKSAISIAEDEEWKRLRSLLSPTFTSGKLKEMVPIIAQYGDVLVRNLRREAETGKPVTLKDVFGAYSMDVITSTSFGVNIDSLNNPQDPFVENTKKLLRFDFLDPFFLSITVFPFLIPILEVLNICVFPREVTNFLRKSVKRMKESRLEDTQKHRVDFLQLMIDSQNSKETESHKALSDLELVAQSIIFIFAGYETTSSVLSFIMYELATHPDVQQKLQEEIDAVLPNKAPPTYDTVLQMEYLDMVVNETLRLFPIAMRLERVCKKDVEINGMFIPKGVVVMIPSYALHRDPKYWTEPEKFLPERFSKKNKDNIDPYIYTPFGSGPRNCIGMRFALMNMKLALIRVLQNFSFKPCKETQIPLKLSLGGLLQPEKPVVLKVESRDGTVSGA

Voltage-gated inwardly rectifying potassium channel KCNH2, sequence (Q12809 whole entry): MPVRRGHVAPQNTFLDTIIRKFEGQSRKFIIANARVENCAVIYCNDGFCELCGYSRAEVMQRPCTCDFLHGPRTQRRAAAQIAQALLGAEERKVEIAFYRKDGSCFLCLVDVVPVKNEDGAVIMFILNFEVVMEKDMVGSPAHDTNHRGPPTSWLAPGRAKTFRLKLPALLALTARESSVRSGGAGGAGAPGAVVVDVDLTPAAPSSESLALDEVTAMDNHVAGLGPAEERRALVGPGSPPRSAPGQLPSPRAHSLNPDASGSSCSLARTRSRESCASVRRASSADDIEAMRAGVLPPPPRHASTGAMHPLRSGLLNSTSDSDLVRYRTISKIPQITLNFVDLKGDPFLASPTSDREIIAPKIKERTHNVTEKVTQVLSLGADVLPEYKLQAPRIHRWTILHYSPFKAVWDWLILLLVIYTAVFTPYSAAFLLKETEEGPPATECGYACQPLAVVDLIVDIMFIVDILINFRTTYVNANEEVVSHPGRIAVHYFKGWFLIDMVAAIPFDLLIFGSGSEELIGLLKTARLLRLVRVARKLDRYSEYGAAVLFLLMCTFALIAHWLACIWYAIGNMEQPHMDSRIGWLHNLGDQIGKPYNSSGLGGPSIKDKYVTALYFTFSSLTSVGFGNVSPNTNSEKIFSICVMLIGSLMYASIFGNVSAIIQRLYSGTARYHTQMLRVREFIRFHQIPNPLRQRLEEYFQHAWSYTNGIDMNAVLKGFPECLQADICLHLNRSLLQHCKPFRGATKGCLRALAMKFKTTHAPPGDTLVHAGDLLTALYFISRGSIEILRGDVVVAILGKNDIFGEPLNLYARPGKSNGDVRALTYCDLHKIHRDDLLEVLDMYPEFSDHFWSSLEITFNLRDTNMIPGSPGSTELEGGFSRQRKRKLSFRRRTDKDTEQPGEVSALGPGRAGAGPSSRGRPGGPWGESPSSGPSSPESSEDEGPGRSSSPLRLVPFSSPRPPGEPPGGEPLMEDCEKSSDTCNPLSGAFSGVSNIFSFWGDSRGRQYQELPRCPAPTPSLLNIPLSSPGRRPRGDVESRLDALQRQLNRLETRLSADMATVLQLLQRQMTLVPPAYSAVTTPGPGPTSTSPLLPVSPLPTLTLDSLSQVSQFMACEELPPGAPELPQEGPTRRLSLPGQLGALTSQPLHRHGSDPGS
Potassium voltage-gated channel subfamily A member 5, sequence (P22460 whole entry): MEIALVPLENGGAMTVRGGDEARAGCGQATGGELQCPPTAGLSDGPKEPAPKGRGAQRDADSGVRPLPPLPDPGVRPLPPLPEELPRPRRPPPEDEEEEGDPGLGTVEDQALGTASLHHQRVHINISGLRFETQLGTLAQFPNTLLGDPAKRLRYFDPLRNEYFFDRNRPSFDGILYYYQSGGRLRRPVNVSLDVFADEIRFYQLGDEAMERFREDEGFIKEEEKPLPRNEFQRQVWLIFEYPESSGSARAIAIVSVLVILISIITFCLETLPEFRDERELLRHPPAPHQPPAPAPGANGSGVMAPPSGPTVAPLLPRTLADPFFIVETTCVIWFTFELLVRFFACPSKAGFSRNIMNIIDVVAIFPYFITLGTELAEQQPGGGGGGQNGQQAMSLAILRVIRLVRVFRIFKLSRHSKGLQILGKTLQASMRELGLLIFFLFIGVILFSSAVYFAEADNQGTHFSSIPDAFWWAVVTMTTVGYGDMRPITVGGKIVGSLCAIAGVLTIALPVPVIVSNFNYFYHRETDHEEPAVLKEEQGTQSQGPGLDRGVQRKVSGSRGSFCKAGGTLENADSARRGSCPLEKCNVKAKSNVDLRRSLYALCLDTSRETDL
Voltage-dependent L-type calcium channel subunit alpha-1C, sequence (Q13936 whole entry): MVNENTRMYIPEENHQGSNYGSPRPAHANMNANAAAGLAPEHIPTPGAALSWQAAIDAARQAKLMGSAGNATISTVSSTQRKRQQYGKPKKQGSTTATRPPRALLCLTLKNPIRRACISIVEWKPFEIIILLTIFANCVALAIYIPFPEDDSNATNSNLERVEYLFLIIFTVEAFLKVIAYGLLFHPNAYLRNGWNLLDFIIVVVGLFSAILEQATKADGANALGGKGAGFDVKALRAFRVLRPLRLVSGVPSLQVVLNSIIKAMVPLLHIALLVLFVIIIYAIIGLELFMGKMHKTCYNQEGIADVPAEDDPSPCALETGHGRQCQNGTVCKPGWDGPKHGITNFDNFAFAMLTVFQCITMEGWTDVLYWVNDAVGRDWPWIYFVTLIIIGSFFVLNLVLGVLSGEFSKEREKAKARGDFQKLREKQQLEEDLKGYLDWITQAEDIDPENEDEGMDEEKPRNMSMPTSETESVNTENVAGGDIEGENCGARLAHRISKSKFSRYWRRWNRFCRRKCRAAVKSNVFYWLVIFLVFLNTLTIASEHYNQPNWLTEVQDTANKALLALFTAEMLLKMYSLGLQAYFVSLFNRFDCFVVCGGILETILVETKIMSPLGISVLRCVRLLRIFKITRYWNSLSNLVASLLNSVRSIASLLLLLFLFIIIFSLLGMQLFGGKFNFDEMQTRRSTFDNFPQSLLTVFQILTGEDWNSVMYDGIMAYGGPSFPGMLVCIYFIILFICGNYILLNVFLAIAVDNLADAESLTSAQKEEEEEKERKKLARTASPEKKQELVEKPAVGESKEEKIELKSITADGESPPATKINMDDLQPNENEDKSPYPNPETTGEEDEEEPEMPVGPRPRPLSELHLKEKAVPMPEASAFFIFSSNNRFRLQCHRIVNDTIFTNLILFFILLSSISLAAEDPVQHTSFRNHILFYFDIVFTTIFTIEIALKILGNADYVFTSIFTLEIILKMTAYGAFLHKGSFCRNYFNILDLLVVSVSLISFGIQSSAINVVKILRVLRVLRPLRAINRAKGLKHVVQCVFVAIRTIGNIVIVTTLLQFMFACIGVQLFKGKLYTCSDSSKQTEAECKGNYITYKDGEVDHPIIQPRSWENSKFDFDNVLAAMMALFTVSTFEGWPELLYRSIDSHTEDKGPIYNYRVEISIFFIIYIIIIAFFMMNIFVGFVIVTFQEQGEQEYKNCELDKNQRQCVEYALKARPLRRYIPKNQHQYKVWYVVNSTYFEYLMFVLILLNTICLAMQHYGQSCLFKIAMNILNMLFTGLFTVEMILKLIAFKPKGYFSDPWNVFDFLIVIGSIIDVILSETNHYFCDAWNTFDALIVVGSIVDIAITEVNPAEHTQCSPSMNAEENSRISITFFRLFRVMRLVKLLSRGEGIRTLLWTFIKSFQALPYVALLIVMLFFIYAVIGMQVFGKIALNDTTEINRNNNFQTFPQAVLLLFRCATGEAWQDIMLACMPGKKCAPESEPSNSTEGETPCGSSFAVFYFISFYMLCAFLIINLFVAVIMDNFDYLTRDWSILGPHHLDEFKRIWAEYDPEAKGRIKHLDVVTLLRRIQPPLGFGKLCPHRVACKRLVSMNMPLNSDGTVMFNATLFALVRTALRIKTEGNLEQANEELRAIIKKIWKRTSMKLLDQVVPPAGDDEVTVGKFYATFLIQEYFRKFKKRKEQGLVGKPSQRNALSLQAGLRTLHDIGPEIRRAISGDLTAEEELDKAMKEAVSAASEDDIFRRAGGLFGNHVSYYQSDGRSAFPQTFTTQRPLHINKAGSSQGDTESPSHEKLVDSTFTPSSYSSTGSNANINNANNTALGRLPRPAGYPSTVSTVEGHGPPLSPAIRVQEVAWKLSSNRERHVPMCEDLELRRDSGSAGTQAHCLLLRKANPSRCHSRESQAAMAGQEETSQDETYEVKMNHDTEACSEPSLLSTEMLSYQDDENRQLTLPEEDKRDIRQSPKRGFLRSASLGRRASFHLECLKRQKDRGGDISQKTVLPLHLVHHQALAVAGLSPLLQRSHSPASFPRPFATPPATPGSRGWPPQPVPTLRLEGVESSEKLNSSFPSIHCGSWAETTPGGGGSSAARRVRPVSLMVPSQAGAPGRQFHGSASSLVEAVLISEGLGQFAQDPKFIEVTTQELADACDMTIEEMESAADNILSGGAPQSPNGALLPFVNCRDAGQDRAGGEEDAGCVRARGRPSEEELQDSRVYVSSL

microsomal CLint at 10 µM [2]: < 1 µL/min/mg
IC50 [4]: > 30 µM
clearance [5]: 10 mL/min/kg
EC50 [6]: 0.43 µM
concentration at 1.5 h [8]: 1550 ng/mL
bioavailability [9]: 28%
concentration at 1.5 h [10]: 1610 ng/g
CLH [12]: 18.3 mL/min/kg
IC50 [13]: > 30 µM
Kp [14]: 1.8
microsomal CLint at 10 µM [15]: 10 µL/min/mg
Kp [16]: 5.3
clearance [17]: 5 mL/min/kg
fraction unbound at 0.25 h [18]: 0.014
EC50 [19]: 0.086 µM
IC50 [20]: > 30 µM
CLH [21]: 15 mL/min/kg
microsomal CLint at 10 µM [23]: 4.7 µL/min/mg
concentration at 1.5 h [24]: 490 ng/g
fraction unbound at 0.25 h [25]: 0.015
fraction unbound at 0.25 h [27]: 0.022
IC50 [30]: > 100 µM
Structure (SMILES): C[C@H](CC[C@](C)(O)C(F)(F)F)[C@H]1CC[C@H]2[C@@H]3CC=C4C[C@@](C)(O)CC[C@]4(C)[C@H]3CC[C@]12C [DALZANEMDOR]
Activity [1]: 6.9 m
Activity [3]: 6.1 Counts
Activity [7]: 1.1 m
IC50 [11]: > 30 µM
IC50 [22]: > 30 µM
Activity [26]: 7.7 Counts
IC50 [28]: > 30 µM
Activity [29]: 4.1 m
